Numbered stars: 1 amine (or outer) side, 2 acyl side, 3 side chain; on linkers, the order of the positions; unused ones are H or OH. Bridge positions count the residues as written; N and C are the ends. Square brackets hold non-standard residues; d marks the D form. Peptide text beside a SMILES is read from it. * marks the point of attachment. hPhe(3,5-F2-4-CF3) = N[C@@H](CCc1cc(F)c(C(F)(F)F)c(F)c1)C(=O)O; hPhe(3-Cl-4-CF3) = N[C@@H](CCc1ccc(C(F)(F)F)c(Cl)c1)C(=O)O; X52 = CN([C@@H](Cc1ccccc1OC(F)(F)F)C(=O)[*:2])[*:1]; hPhe(4-CF3) = N[C@@H](CCc1ccc(C(F)(F)F)cc1)C(=O)O; X20 = Cc1cncc(C[C@@H](C(=O)[*:2])N(C)[*:1])c1; NEtPhe(4-Me) = CCN[C@@H](Cc1ccc(C)cc1)C(=O)O; NMePhe(4-Cl) = CN[C@@H](Cc1ccc(Cl)cc1)C(=O)O; Phe(3-I) = N[C@@H](Cc1cccc(I)c1)C(=O)O; NMeCha = CN[C@@H](CC1CCCCC1)C(=O)O; NMeChg = CN[C@H](C(=O)O)C1CCCCC1; NMeF = CN[C@@H](Cc1ccccc1)C(=O)O; NMeI = CC[C@H](C)[C@H](NC)C(=O)O; NMeT = CN[C@H](C(=O)O)[C@@H](C)O; N(CH2CH2)2CF2 = FC1(F)CCN(*)CC1; NMeD = CN[C@@H](CC(=O)O)C(=O)O; NMeL = CN[C@@H](CC(C)C)C(=O)O; NMeV = CN[C@H](C(=O)O)C(C)C; d(β3hA) = C[C@@H](N)CC(=O)O; NMeA = CN[C@@H](C)C(=O)O; Nle = CCCC[C@H](N)C(=O)O; Piperidide = C1CCN(*)CC1; dNMeA = CN[C@H](C)C(=O)O; Ac5c = NC1(C(=O)O)CCCC1; Aze = O=C(O)[C@@H]1CCN1; Aib = CC(C)(N)C(=O)O; Sar = CNCC(=O)O
tested on: Human pancreatic cancer cell line AsPC-1 (G12D mutation Kras); test: AsPC-1 cell growth inhibition (AsPC-1 CGI); format: cell-based; conditions: read-out: AsPC-1 cell growth inhibition, 50% growth inhibitory concentration (IC50 value); 96 hours, CellTiter-Glo, values classified in ranges
Method: Test compounds were serially dilated with dimethyl sulfoxide, and 200 nL was then dispensed to a U-bottom 96-well plate using Labcyte Echo. […] The cell suspension was dispensed to a. plate containing a test compound at 100 μL per well and incubated at 37° C. in a 5% carbon dioxide gas incubator. 96 hours later, 80 μL of CellTiter-Glo (Promega) was added to each well and fluorescence was measured.

Structure (SMILES) | IC50
CC[C@H](C)[C@@H]1NC(=O)[C@H](C)N(C)C(=O)C[C@@H](C(=O)N2CCCCC2)N(C)C(=O)[C@H](C(C)C)N(C)C(=O)C2(CCCC2)NC(=O)[C@@H]2CCCN2C(=O)[C@H](CCc2ccc(C(F)(F)F)c(Cl)c2)NC(=O)[C@@H](C)N(C)C(=O)[C@H](Cc2ccccc2)N(C)C(=O)CN(C)C(=O)CN(C)C1=O [Compound 1844] ([NMeA]I[Sar][Sar][NMeF][dNMeA][hPhe(3-Cl-4-CF3)]P[Ac5c][NMeV][NMeD]-Piperidide; lactam N-11) | > 500 nM
CC(C)C[C@H]1C(=O)N[C@@H](C)C(=O)N(C)CC(=O)N(C)CC(=O)N(C)[C@@H](CC2CCCCC2)C(=O)N(C)CC(=O)N[C@@H](CCc2ccc(C(F)(F)F)c(Cl)c2)C(=O)N2CCC[C@H]2C(=O)NC2(CCCC2)C(=O)N(C)[C@@H](C2CCCCC2)C(=O)N(C)[C@H](C(=O)N2CCCCC2)CC(=O)N1C [Compound 1802] ([NMeL]A[Sar][Sar][NMeCha][Sar][hPhe(3-Cl-4-CF3)]P[Ac5c][NMeChg][NMeD]-Piperidide; lactam N-11) | > 500 nM
CC[C@H](C)[C@@H]1NC(=O)[C@H](CC(C)C)N(C)C(=O)C[C@@H](C(=O)N2CCCCC2)N(C)C(=O)[C@H](C(C)C)N(C)C(=O)C(C)(C)NC(=O)[C@H](CC(=O)N2CCC(F)(F)CC2)N(C)C(=O)[C@H](CCc2ccc(C(F)(F)F)c(Cl)c2)NC(=O)CN(C)C(=O)[C@H](CC2CCCCC2)N(C)C(=O)CN(C)C(=O)CN(C)C1=O [Compound 463] ([NMeL]I[Sar][Sar][NMeCha][Sar][hPhe(3-Cl-4-CF3)][NMeD](N(CH2CH2)2CF2)[Aib][NMeV][NMeD]-Piperidide; lactam N-11) | > 500 nM
CCCC[C@@H]1NC(=O)[C@H](Cc2cccc(I)c2)NC(=O)CN(C)C(=O)[C@H](Cc2ccc(Cl)cc2)N(C)C(=O)CN(C)C(=O)CN(C)C(=O)[C@H]([C@@H](C)CC)NC(=O)[C@H](CC(C)C)N(C)C(=O)C[C@@H](C(=O)N2CCCCC2)N(C)C(=O)[C@H](CC(C)C)NC(=O)[C@H](Cc2ccccc2OC(F)(F)F)N(C)C1=O [Compound 111] ([NMeL]I[Sar][Sar][NMePhe(4-Cl)][Sar][Phe(3-I)][Nle][X52]L[NMeD]-Piperidide; lactam N-11) | > 500 nM
CC[C@H](C)[C@@H]1NC(=O)[C@H](C)N(C)C(=O)C[C@@H](C)NC(=O)[C@H](CC(C)C)N(C)C(=O)C(C)(C)NC(=O)[C@@H]2CCCN2C(=O)[C@H](CCc2ccc(C(F)(F)F)cc2)NC(=O)CN(C)C(=O)[C@H](Cc2ccc(Cl)cc2)N(C)C(=O)CN(C)C(=O)CN(C)C1=O [Compound 664] (cyclo([Aib][NMeL][d(β3hA)][NMeA]I[Sar][Sar][NMePhe(4-Cl)][Sar][hPhe(4-CF3)]P)) | > 500 nM
CC[C@H](C)[C@@H]1NC(=O)[C@H](CC(C)C)N(C)C(=O)C[C@@H](C(=O)N2CCCCC2)N(C)C(=O)[C@H]([C@@H](C)O)N(C)C(=O)C2(CCCC2)NC(=O)[C@@H]2CCCN2C(=O)[C@H](CCc2ccc(C(F)(F)F)c(Cl)c2)NC(=O)CN(C)C(=O)[C@H](CC2CCCCC2)N(C)C(=O)CN(C)C(=O)CN(C)C1=O [Compound 1041] ([NMeL]I[Sar][Sar][NMeCha][Sar][hPhe(3-Cl-4-CF3)]P[Ac5c][NMeT][NMeD]-Piperidide; lactam N-11) | > 500 nM
CC(C)C[C@H]1C(=O)N[C@@H](CO)C(=O)N(C)[C@@H](C)C(=O)N2CC[C@H]2C(=O)N(C)[C@@H](CC2CCCCC2)C(=O)N(C)CC(=O)N[C@@H](CCc2ccc(C(F)(F)F)c(Cl)c2)C(=O)N2CCC[C@H]2C(=O)NC2(CCCC2)C(=O)N(C)[C@@H](C(C)C)C(=O)N(C)[C@H](C(=O)N2CCCCC2)CC(=O)N1C [Compound 1768] ([NMeL]S[NMeA][Aze][NMeCha][Sar][hPhe(3-Cl-4-CF3)]P[Ac5c][NMeV][NMeD]-Piperidide; lactam N-11) | > 500 nM
CC[C@H](C)[C@@H]1NC(=O)[C@H](CC(C)C)N(C)C(=O)C[C@@H](C(=O)N(C)C)N(C)C(=O)[C@H]([C@@H](C)CC)N(C)C(=O)C2(CCCC2)NC(=O)[C@@H]2CCCN2C(=O)[C@H](CCc2cc(F)c(C(F)(F)F)c(F)c2)NC(=O)CN(C)C(=O)[C@H](Cc2ccc(C)cc2)N(CC)C(=O)[C@@H]2CCN2C(=O)[C@H](C)N(C)C1=O [Compound 571] ([NMeL]I[NMeA][Aze][NEtPhe(4-Me)][Sar][hPhe(3,5-F2-4-CF3)]P[Ac5c][NMeI][NMeD]-NMe2; lactam N-11) | ≤ 20 nM
CC[C@H](C)[C@@H]1NC(=O)[C@H](CC(C)C)N(C)C(=O)C[C@@H](C(=O)N2CCCCC2)N(C)C(=O)[C@H](C2CCCCC2)N(C)C(=O)C2(CCCC2)NC(=O)[C@H](Cc2cncc(C)c2)N(C)C(=O)[C@H](CCc2ccc(C(F)(F)F)c(Cl)c2)NC(=O)CN(C)C(=O)[C@H](CC2CCCCC2)N(C)C(=O)[C@@H]2CCN2C(=O)CN(C)C1=O [Compound 477] ([NMeL]I[Sar][Aze][NMeCha][Sar][hPhe(3-Cl-4-CF3)][X20][Ac5c][NMeChg][NMeD]-Piperidide; lactam N-11) | > 500 nM
